Experimental data taken from PMC5591244, “Novel selective, potent naphthyl TRPM8 antagonists identified through a combined ligand- and structure-based virtual screening approach” (Scientific Reports, 2017).
Entries after “also recorded” stand apart in the source; their conditions may differ.

Columns and labels:
TRPM8 = target: T1, TRPM8 (Homo sapiens, UniProt Q7Z2W7); assay: Manual patch clamp (whole-cell voltage clamp); assay type: cell-based; conditions: Cooling agent 10 50 μM, +40 mV, compound 1 300 nM
T1 construct: expressed in transfected cells
Procedure: Sixteen hours before an experiment, cells were seeded onto poly-D-lysine-coated glass slides (150,000 cells each) and placed in 6-well plates in antibiotic-free medium. Immediately before experiments, the coated glass slides with seeded cells were washed five times with patch-clamp extracellular solution (145 mM NaCl, 10 mM EGTA, 10 mM HEPES, 10 mM Glucose, pH 7.4 with NaOH) and then placed into the recording chamber.
The electrophysiology study involved a whole-cell voltage clamp and intracellular solution consisting of 128 mM CsCl, 10 mM EGTA, 0.7 mM CaCl2, 3 mM MgCl2, 10 mM HEPES, and 5 mM Na2ATP at pH 7.2 with CsOH. For the pulse protocols, cells were held at +40 mV, and outward currents were acquired in uninterrupted recording mode. Data were recorded in standard whole-cell voltage experiments performed at room temperature. For data acquisition and further analysis, an EPC10 digitally controlled amplifier was utilized in combination with PATCHMASTER software (HEKA Electronics, Lambrect, Germany). The EPC10 provides automatic subtraction of capacitive currents by means of the prepulse. The data were filtered at 2.9 KHz (−3 dB, 4-pole Bessel lowpass) and digitized at 100 µs per point. […] Outward currents elicited by the addition of 50 μM cooling agent 10 or of cooling agent 10 (50 μM) plus compound 1 (300 nM) were recorded.

[1] = tested on: rat bladder (rhythmic bladder contraction); assay: Isovolumetric bladder rat model; assay type: in vivo
Procedure: (§1) To assess the activity of compound 1 in preclinical models of painful urologic syndromes as OBS we used an isovolumetric rat bladder animal model. A preliminary PK/ADMET study was conducted to assess the behaviour of compound 1 in vivo (Table S3).
Female Wistar rats (190–250 g) obtained from Charles River Laboratories were housed according to animal welfare guidelines. Rats were housed in a specific-pathogen-free environment under strictly controlled light cycle conditions, and food and water were provided ad libitum. All experimental protocols were carried out by Urosphere in accordance with the European Community Council Directive 86/609/EEC. They were performed in accordance with French legislation concerning the protection of laboratory animals and they were approved by French Ministry for Agriculture and Fisheries which provided a currently valid license for experiments on vertebrate animals to Dr. Philippe Lluel.
For intravenous administration, compound 1 was diluted in vehicle (10% of 2:1 solutol:NMP, 16% buffer, and 74% H2O) according to body weight to obtain doses of 10 mg/kg. For intravesical administration, compound 1 was diluted at a concentration of 7.56 mg/ml in a solution of 7% 2:1 solutol:NMP, […]. Eight rats were used for the control group and eight were used for the treated group.
Rats were anesthetized with urethane (1 g/kg, i.p.), given as a divided dose of 80% initially and 20% 15 min later. After abdominal incision, the ureters were ligated and sectioned. A catheter was placed into the bladder through the urethra. Then, the urethra was ligated at the level of the urinary meatus. For cystometric experiments with intravenous compound 1 administration a bladder catheter was connected via a T-tube to a strain gauge, which was used to measure the intravesical pressure. Isovolumetric bladder contractions were induced by stepwise injections of physiological saline at room temperature (100 μl every 5 min) until stable RBC occurred. After stabilization and a control period of at least 30 min, characterized by stable and reproducible bladder contractions (basal values), the test substance or vehicle was administered by intravenous infusion (1 mL within 5 min). The effects of compound 1 on micturition frequency (MF) (peaks/30 min), time of inhibition, and threshold volume (ml) (volume inducing RBC) were analyzed. The drug effects were evaluated from the end of the administration up to 1 hour after administration. For intravesical administration, compounds were administered intravesically 3 × 100 μl every 5 min. Then, the bladder was filled with 100 μl of saline every 5 min until the occurrence of rhythmic bladder contraction (RBC) with a maximal volume of 3 mL. […]

[2] = Preliminary PK/ADMET study; conditions: in vivo proof of concept; Table S3 not available
Procedure: as §1

T1 sequence (Q7Z2W7 whole entry): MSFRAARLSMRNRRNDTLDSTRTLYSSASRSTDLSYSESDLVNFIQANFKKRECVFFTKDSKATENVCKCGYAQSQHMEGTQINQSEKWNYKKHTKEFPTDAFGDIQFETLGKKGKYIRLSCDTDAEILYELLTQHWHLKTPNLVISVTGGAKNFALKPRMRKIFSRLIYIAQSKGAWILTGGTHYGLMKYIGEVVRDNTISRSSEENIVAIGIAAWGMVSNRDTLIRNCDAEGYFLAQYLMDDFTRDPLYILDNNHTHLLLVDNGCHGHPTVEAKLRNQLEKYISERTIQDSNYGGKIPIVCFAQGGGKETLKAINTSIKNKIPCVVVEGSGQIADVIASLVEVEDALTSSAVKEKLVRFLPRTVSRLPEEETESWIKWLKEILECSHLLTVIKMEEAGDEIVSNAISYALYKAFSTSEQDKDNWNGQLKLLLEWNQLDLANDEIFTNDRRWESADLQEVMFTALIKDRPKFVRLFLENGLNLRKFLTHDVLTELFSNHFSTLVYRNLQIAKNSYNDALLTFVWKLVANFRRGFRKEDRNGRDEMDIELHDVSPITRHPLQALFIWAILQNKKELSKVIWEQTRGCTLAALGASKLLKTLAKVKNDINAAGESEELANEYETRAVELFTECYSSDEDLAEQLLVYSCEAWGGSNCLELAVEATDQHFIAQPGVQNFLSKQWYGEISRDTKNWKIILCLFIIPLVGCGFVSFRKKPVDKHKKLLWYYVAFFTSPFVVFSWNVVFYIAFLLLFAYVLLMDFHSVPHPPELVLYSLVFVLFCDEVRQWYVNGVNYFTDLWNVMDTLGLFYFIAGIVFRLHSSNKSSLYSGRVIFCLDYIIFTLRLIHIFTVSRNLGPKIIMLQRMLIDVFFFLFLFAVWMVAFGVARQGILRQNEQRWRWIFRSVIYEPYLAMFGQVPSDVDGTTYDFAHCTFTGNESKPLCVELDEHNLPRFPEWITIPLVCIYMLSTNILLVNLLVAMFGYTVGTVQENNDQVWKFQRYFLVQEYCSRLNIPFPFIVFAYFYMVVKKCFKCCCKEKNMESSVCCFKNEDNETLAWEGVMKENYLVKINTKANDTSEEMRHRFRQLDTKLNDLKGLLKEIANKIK

Clc1c(OCCNCc2ccco2)ccc2ccccc12 [Compound 1]
Effect on outward current (TRPM8): completely abrogated electrical impulse transmission; also recorded: almost completely blocked
Threshold volume versus vehicle, intravenous ([1]; intravenous 10 mg/kg): No significant difference
Micturition frequency (MF) 0–30 min post-administration ([1]; intravenous 10 mg/kg, 0–30 min, 10 mg/kg): significantly decreased; also recorded: significantly reduced
Micturition frequency (MF) 30–60 min post-administration ([1]; intravenous 10 mg/kg, 30–60 min): no effect
Occurrence of RBC, intravesical ([1]; intravesical 2.268 mg): abolished the occurrence of RBC
PK/ADME properties [2]: adequate
